One assay addresses T1, NEP (Rattus norvegicus, UniProt P07861).
T1 sequence (P07861 1-750): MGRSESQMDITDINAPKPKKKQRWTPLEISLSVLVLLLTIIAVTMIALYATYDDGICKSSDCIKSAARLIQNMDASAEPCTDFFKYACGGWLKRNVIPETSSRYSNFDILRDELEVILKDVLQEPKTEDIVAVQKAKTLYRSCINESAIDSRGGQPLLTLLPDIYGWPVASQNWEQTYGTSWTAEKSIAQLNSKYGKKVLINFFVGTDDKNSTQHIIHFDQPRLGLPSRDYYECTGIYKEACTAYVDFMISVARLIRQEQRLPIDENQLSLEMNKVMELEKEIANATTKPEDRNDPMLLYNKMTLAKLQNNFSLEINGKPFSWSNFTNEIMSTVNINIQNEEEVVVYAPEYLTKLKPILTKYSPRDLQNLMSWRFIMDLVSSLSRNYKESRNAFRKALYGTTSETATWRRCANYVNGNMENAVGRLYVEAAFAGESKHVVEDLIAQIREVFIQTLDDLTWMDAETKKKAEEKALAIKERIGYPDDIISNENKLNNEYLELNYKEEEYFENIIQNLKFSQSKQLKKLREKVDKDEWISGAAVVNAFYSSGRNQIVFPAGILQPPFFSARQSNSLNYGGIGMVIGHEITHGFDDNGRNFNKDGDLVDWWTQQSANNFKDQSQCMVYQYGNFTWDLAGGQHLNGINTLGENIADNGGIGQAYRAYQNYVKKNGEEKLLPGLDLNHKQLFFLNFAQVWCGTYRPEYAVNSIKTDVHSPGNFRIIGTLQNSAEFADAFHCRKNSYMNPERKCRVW
Put plainly: In vitro NEP-inhibitory activity in rat kidney cortex membranes ([3H][Leu5]-enkephaline hydrolysis). To be noted: [3H][Leu5]-enkephaline 15 nM, 30°C. The arrangement: Kidneys were removed from male Sprague-Dawley rats weighing approximately 300 g; from tissue; host or cells: rat kidney cortex membranes (male Sprague-Dawley). The class given is biochemical. The procedure: The NEP-inhibitory activity was evaluated in rat kidney cortex membranes prepared according to the procedure described by T. Maeda et al. in Biochim. Biophys.
Kidneys were removed from male Sprague-Dawley rats weighing approximately 300 g and kept at 4°C.
Kidney cortex was carefully dissected, finely minced and suspended in a homogenization buffer (10 mM sodium phosphate pH 7.4 containing 1 mM MgCl2, 30 mM NaCl, 0.02% NaN3) 1:15 weight/volume.
The tissue was then cold homogenized for 30 seconds using an Ultra-Turrax homogenizer.
The membranes were collected from the buffer/sucrose interface, washed twice with 50 mM TRIS/HCl buffer (pH 7.4) and resuspended into the same buffer for storage in small aliquots at -80°C until use.
The NEP-inhibitory activity was evaluated by using the method described by C.
Aliquots of the membrane suspension prepared as above described (concentration 5 µg/ml of proteins) were preincubated in the presence of an aminopeptidase inhibitor (Bestatin - 1 mM) for 10 minutes at 30°C.
Incubation (20 minutes at 30°C) was stopped by adding HCI 0.1M (100 µl).
The formation of the metabolite [^3H]Tyr-Gly-Gly was quantified by chromatography on polystyrene columns (Porapak Q).
The percentage of inhibition of the metabolite formation in the membrane preparations treated with the compounds of formula I and with the comparative compounds with respect to the untreated membrane preparations was expressed as IC50 (nM) value.

For a further assay, the target named is T2, ACE (Oryctolagus cuniculus, UniProt P12822).
T2 construct: ACE (250 mU/ml purified by lung rabbit, EC 3.4.15.1 SIGMA); purchased SIGMA; host or cells: rabbit lung (tissue-purified)
T2 sequence (P12822 34-1310): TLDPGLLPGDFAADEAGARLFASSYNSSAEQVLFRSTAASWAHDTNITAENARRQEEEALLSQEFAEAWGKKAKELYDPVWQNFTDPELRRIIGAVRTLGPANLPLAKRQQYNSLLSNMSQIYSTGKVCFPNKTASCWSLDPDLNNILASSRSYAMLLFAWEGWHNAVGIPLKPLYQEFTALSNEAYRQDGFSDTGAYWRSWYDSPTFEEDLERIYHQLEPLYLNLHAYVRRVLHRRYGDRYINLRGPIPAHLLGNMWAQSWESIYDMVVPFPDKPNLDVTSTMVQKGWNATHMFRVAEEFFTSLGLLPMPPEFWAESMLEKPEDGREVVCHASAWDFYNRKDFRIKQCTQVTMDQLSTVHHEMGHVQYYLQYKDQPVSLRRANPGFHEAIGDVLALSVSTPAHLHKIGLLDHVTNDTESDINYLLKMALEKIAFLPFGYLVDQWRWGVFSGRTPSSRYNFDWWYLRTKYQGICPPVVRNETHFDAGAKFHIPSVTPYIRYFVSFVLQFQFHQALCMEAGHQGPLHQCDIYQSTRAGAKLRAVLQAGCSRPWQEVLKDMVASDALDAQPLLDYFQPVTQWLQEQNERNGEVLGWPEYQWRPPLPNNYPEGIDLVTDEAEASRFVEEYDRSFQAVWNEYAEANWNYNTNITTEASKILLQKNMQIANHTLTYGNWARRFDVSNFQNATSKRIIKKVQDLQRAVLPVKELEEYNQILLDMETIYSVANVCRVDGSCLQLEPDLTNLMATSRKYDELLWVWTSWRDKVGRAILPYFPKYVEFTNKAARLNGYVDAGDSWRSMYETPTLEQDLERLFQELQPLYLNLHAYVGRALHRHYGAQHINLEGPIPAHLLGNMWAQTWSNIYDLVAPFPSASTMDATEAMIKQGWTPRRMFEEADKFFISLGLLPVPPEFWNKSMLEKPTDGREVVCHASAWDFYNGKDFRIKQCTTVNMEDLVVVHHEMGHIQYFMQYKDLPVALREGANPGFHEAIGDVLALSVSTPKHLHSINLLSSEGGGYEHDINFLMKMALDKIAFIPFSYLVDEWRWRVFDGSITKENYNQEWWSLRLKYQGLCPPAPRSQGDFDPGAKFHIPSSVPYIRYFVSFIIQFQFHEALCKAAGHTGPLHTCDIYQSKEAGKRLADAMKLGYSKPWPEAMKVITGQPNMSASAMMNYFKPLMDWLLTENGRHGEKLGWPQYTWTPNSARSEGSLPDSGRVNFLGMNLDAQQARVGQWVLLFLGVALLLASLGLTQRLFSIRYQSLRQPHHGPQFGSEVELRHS
Put plainly: In vitro ACE-inhibitory activity (FAPGG substrate, spectrophotometric). Type of assay: biochemical. The conditions noted are these: ACE purified by lung rabbit, FAPGG 0.8 mM, 37°C. On the procedure: […] of ACE (250 mU/ml purified by lung rabbit, EC 3.4.15.1 SIGMA) were preincubated with 50 µl of the compound of formula I or of the reference compound or related vehicle in thermostated cuvettes at 37°C.
The reaction was started by adding furylacryloylphenylalanylglycylglycine 0.8 mM (FAPGG-SIGMA).
Contemporaneously, by using a Beckman DU-50 spectrophotometer provided with a program for calculating delta A/minutes and regression coefficients of the enzyme kinetics curves, the absorbance at 340 nm was recorded in continuo for 5 minutes.
The percentage of the enzyme inhibition in the preparations treated with the compounds of formula I or with the comparative compounds with respect to the untreated preparations was expressed as IC50 (nM) value.

Consider one compound from patent publication EP0877740B1, “THIOL DERIVATIVES WITH METALLOPEPTIDASE INHIBITORY ACTIVITY” (ZAMBON GROUP S.p.A., priority 1995, dated 1997).

What is called IC50 is the concentration at which inhibition is half-maximal. A low value points to greater potency. With `O=C(N[C@@H](Cc1ccc(-c2nccs2)cc1)C(=O)O)[C@@H](CS)Cc1ccccc1` [Compound 16, N-[(2S)-3-mercapto-2-phenylmethylpropionyl]-4-(2-thiazolyl)-L-phenylalanine], the IC50 against NEP amounted to 1.8 nM; at ACE, 3.2 nM.
